Columns and labels:
barnyardgrass [1] = assay: Test B pre-/postemergence herbicide test; type: in vivo, Echinochloa crus-galli
In short: (§1)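 Herbicidal effect was judged by eye on a 0–100 scale after plants stood 13 to 15 days in the greenhouse following pre- or postemergence treatment with surfactant-containing formulations.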

Surinam grass = assay: Test B pre-/postemergence herbicide test; type: in vivo, Urochloa decumbens
In short: (§2)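 Flooded paddy rice and barnyardgrass were treated at the 2-leaf stage; upland plantings received compound either on sown seed or on 1- to 4-leaf seedlings. All were kept 13–15 days in a greenhouse and scored visually, 0–100, relative to untreated plants.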

cocklebur = assay: Test B pre-/postemergence herbicide test; type: in vivo, Xanthium strumarium
In short: as §1

corn = assay: Test B pre-/postemergence herbicide test; type: in vivo, Zea mays
In short: as §2

large crabgrass = assay: Test B pre-/postemergence herbicide test; type: in vivo, Digitaria sanguinalis
In short: as §2

giant foxtail = assay: Test B pre-/postemergence herbicide test; type: in vivo, Setaria faberi
In short: as §2

lambsquarters = assay: Test B pre-/postemergence herbicide test; type: in vivo, Chenopodium album
In short: as §2

morningglory = assay: Test B pre-/postemergence herbicide test; type: in vivo, Ipomoea coccinea
In short: as §1

pigweed = assay: Test B pre-/postemergence herbicide test; type: in vivo, Amaranthus retroflexus
In short: as §2

velvetleaf = assay: Test B pre-/postemergence herbicide test; type: in vivo, Abutilon theophrasti
In short: as §2

blackgrass = assay: Test B postemergence herbicide test; type: in vivo, Alopecurus myosuroides
In short: (§3)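 Treated at 2-leaf (paddy) or 1–4-leaf, 2–18 cm (postemergence); greenhouse 13–15 d; visual score vs control, 0 none to 100 complete control; dash = not tested.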

wheat = assay: Test B postemergence herbicide test; type: in vivo, Triticum aestivum; set-up: key to Wheat plant response rating: 0 = no effect, 100 = complete control
In short: as §3

wild oat = assay: Test B postemergence herbicide test; type: in vivo, Avena fatua
In short: as §3

rice [2] = assay: Test B flooded paddy test; type: in vivo, Oryza sativa; conditions: 1000 g ai/ha, scale 0 to 100 (0 no effect, 100 complete control)
In short: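 After treating 2-leaf paddy plants or 2–18 cm postemergence plants (1 to 4 leaves) with formulated chemical, researchers kept them in a greenhouse for 13–15 days. Effects were judged visually versus controls: 0 indicates none, 100 total control.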

[3] = system: small flower umbrella sedge; assay: Test B flooded paddy test; type: in vivo, Cyperus difformis; conditions: 1000 g ai/ha, scale 0 to 100 (0 no effect, 100 complete control)
In short: as §3

ducksalad [4] = assay: Test B flooded paddy test; type: in vivo, Heteranthera limosa; conditions: 1000 g ai/ha, scale 0 to 100 (0 no effect, 100 complete control)
In short: as §3

barnyardgrass [5] = assay: Test B flooded paddy test; type: in vivo, Echinochloa crus-galli; conditions: 1000 g ai/ha, scale 0 to 100 (0 no effect, 100 complete control)
In short: as §3

rice [6] = assay: Test C flooded paddy test; type: in vivo, Oryza sativa; conditions: for Plant response rating, Rice: 500 g ai/ha, visual rating after 12 to 14 days
In short: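 Plants were grown to the 1- to 4-leaf stage (2–18 cm) and then treated postemergence, or grown to the 2-leaf stage for the flooded paddy test. They were held in a greenhouse for 12 to 14 days and then scored by eye against controls, where 0 is no effect and 100 is complete control.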

[7] = system: smallflower umbrella sedge; assay: Test C flooded paddy test; type: in vivo, Cyperus difformis
ducksalad [8] = assay: Test C flooded paddy test; type: in vivo, Heteranthera limosa
barnyardgrass [9] = assay: Test C flooded paddy test; type: in vivo, Echinochloa crus-galli; conditions: for Plant response rating, Barnyardgrass: 500 g ai/ha, visual rating after 12 to 14 days
In short: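 After a postemergence application at 1 to 4 leaves (plants 2–18 cm high), or at 2 leaves for barnyardgrass in flooded paddy, plants stayed in the greenhouse for 12 to 14 days. Damage was then judged visually relative to control plants, with 100 indicating complete control.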

[10] = Postemergence, 250 g ai/ha, scale 0 (no effect) to 100 (complete control)
[11] = postemergence, 62 g ai/ha, scale 0 to 100
[12] = 62 g ai/ha, scale 0 to 100 (0 no effect, 100 complete control)
[13] = 125 g ai/ha, scale 0 to 100 (0 no effect, 100 complete control)
[14] = 250 g ai/ha, scale of 0 to 100, 0 is no effect, 100 is complete control
[15] = scale 0 to 100 (0 no effect, 100 complete control)
[16] = 500 g ai/ha, visual rating after 12 to 14 days, scale 0 to 100 (0 no effect, 100 complete control)
[17] = 125 g ai/ha, 0 is no effect, 100 is complete control, preemergence
[18] = 125 g ai/ha, visual rating, scale 0 (no effect) to 100 (complete control), postemergence
[19] = postemergence, 500 g ai/ha, scale 0 to 100, 0 is no effect, 100 is complete control
[20] = Postemergence, 500 g ai/ha, scale 0 (no effect) to 100 (complete control)

CCNC(=O)c1cccc(NC(=O)c2cn(C(C)(C)C)nc2C(F)(F)F)c1 [Compound 192]
Barnyardgrass plant response rating (barnyardgrass [1]; [10]): 10
Barnyardgrass plant response rating (barnyardgrass [1]; [11]): 0
Surinam Grass plant response rating (Surinam grass; [10]): 10
Surinam Grass plant response rating (Surinam grass; [11]): 10
Cocklebur plant response rating (cocklebur; [10]): 60
Cocklebur plant response rating (cocklebur; [11]): 0
Corn plant response rating (corn; [10]): 10
Corn plant response rating (corn; [11]): 10
Crabgrass, Large plant response rating (large crabgrass; [10]): 20
Crabgrass, Large plant response rating (large crabgrass; [11]): 10
Foxtail, Giant plant response rating (giant foxtail; [10]): 20
Foxtail, Giant plant response rating (giant foxtail; [11]): 10
Lambsquarters plant response rating (lambsquarters; [10]): 80
Lambsquarters plant response rating (lambsquarters; [11]): 70
Morningglory plant response rating (morningglory; [10]): 100
Morningglory plant response rating (morningglory; [11]): 60
Pigweed plant response rating (pigweed; [10]): 60
Pigweed plant response rating (pigweed; [11]): 30
Velvetleaf plant response rating (velvetleaf; [10]): 50
Velvetleaf plant response rating (velvetleaf; [11]): 20
Blackgrass plant response rating (blackgrass; [10]): 0
Blackgrass plant response rating (blackgrass; [11]): 0
Wheat plant response rating (wheat; 250 g ai/ha, scale 0 to 100, 0 no effect, 100 complete control, preemergence): 10
Wheat plant response rating (wheat; [10]): 0
Wheat plant response rating (wheat; [11]): 0
Oat, Wild plant response rating (wild oat; [10]): 20
Oat, Wild plant response rating (wild oat; [11]): 10
Rice plant response rating (rice [2]; visual rating, 13 to 15 days): 70
Sedge, Umbrella plant response rating ([3]; visual rating, 13 to 15 days): 80
Ducksalad plant response rating (ducksalad [4]; visual rating, 13 to 15 days): 80
Barnyardgrass plant response rating (barnyardgrass [5]; visual rating, 13 to 15 days): 80
Rice plant response rating (rice [6]; [12]): 0
Rice plant response rating (rice [6]; [13]): 15
Rice plant response rating (rice [6]; [14]): 45
Plant response rating, Rice (rice [6]; [15]): 70
Sedge, Umbrella plant response rating [7, 12]: 70
Sedge, Umbrella plant response rating [7, 13]: 75
Sedge, Umbrella plant response rating [7, 14]: 85
Plant response rating, Sedge, Umbrella [7, 16]: 90
Ducksalad plant response rating (ducksalad [8]; [12]): 0
Ducksalad plant response rating (ducksalad [8]; [13]): 0
Ducksalad plant response rating (ducksalad [8]; [14]): 25
Plant response rating, Ducksalad (ducksalad [8]; [16]): 60
Barnyardgrass plant response rating (barnyardgrass [9]; [12]): 0
Barnyardgrass plant response rating (barnyardgrass [9]; 125 g ai/ha, scale of 0 to 100, 0 is no effect, 100 is complete control): 0
Barnyardgrass plant response rating (barnyardgrass [9]; [14]): 0
Plant response rating, Barnyardgrass (barnyardgrass [9]; [15]): 70

CCc1nn(C(C)(C)CC)nc1C(=O)Nc1cc(C(=O)N(C)C)ccc1F [Compound 368]
Plant response rating (0 to 100 scale), Barnyardgrass (barnyardgrass [1]; [17]): 40
Barnyardgrass plant response rating (barnyardgrass [1]; [18]): 0
Barnyardgrass plant response rating (barnyardgrass [1]; [19]): 10
Plant response rating (0 to 100 scale), Surinam Grass (Surinam grass; [17]): 10
Surinam Grass plant response rating (Surinam grass; [18]): 0
Surinam Grass plant response rating (Surinam grass; [20]): 0
Plant response rating (0 to 100 scale), Cocklebur (cocklebur; [17]): 0
Cocklebur plant response rating (cocklebur; [18]): 20
Cocklebur plant response rating (cocklebur; [19]): 30
Plant response rating (0 to 100 scale), Corn (corn; [17]): 0
Corn plant response rating (corn; [18]): 0
Corn plant response rating (corn; [19]): 10
Plant response rating (0 to 100 scale), Crabgrass, Large (large crabgrass; [17]): 10
Crabgrass, Large plant response rating (large crabgrass; [18]): 10
Crabgrass, Large plant response rating (large crabgrass; [19]): 10
Plant response rating (0 to 100 scale), Foxtail, Giant (giant foxtail; [17]): 20
Foxtail, Giant plant response rating (giant foxtail; [18]): 0
Foxtail, Giant plant response rating (giant foxtail; [19]): 10
Lambsquarters plant response rating (lambsquarters; [18]): 50
Lambsquarters plant response rating (lambsquarters; [20]): 60
Plant response rating (0 to 100 scale), Morningglory (morningglory; [17]): 0
Morningglory plant response rating (morningglory; [18]): 0
Morningglory plant response rating (morningglory; [20]): 30
Plant response rating (0 to 100 scale), Pigweed (pigweed; [17]): 30
Pigweed plant response rating (pigweed; [18]): 10
Pigweed plant response rating (pigweed; [20]): 50
Plant response rating (0 to 100 scale), Velvetleaf (velvetleaf; [17]): 0
Velvetleaf plant response rating (velvetleaf; [18]): 10
Velvetleaf plant response rating (velvetleaf; [20]): 20
Blackgrass plant response rating (blackgrass; [18]): 0
Blackgrass plant response rating (blackgrass; [19]): 10
Wheat plant response rating (wheat; [18]): 0
Wheat plant response rating (wheat; 500 g ai/ha, scale 0 to 100, 0 no effect, 100 complete control, preemergence): 10
Wheat plant response rating (wheat; [20]): 0
Oat, Wild plant response rating (wild oat; [18]): 0
Oat, Wild plant response rating (wild oat; [20]): 0
Rice plant response rating (rice [2]): 50
Sedge, Umbrella plant response rating [3]: 80
Ducksalad plant response rating (ducksalad [4]): 90
Barnyardgrass plant response rating (barnyardgrass [5]): 60
Rice plant response rating (rice [6]; 62 g ai/ha, scale 0 to 100): 20
Rice plant response rating (rice [6]; [13]): 45
Rice plant response rating (rice [6]; [14]): 60
Plant response rating, Rice (rice [6]; [15]): 70
Sedge, Umbrella plant response rating ([7]; 62 g ai/ha, scale 0 to 100): 20
Sedge, Umbrella plant response rating [7, 13]: 75
Sedge, Umbrella plant response rating [7, 14]: 75
Ducksalad plant response rating (ducksalad [8]; 62 g ai/ha, scale 0 to 100): 0
Ducksalad plant response rating (ducksalad [8]; [13]): 80
Ducksalad plant response rating (ducksalad [8]; [14]): 90
Barnyardgrass plant response rating (barnyardgrass [9]; [12]): 0
Barnyardgrass plant response rating (barnyardgrass [9]; [13]): 0
Barnyardgrass plant response rating (barnyardgrass [9]; [14]): 0
Plant response rating, Barnyardgrass (barnyardgrass [9]; [15]): 30

From US20060069132A1, “Azolecarboxamide herbicides” (priority 2004, published 2006)
